From US11311503B1, “Sterile aqueous choline salt compositions” (Protara Therapeutics, Inc., priority 2021, dated 2022)
Like-named read-outs stand apart in the source and are kept apart here.

Tests used:
[1] = three months post production
[2] = three months post production; remark: listed apart in the source
[3] = Acid 1: 1 N HCl, about 72 hours
[4] = Acid 2: 0.1 N HCl, about 72 hours
[5] = Base 1: 1 N NaOH, about 72 hours
[6] = Base 2: 0.1 N NaOH, about 72 hours
[7] = Heat (dry): 80°, about 72 hours
[8] = Heat (wet): 80°, about 72 hours
[9] = Oxidation: 5% H2O2, about 24 hours
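For % Impurities RRT 1.42/1.44 in this document: Stress-treated samples analysed together with a control by the test method, run time lengthened to catch possible late-eluting degradation peaks.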
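For % Total Impurities in this document: Stress-treated samples analysed together with a control by the test method, run time lengthened to catch possible late-eluting degradation peaks.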
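For Assay % Relative to control in this document: Stress-treated samples analysed together with a control by the test method, run time lengthened to catch possible late-eluting degradation peaks.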
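For Mass Balance % Relative to Control in this document: Stress-treated samples analysed together with a control by the test method, run time lengthened to catch possible late-eluting degradation peaks.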

## C[N+](C)(C)CCO.[Cl-] [Choline chloride]
[1]
  Bacterial Endotoxins: <0.1 EU/mg
[2]
  pH (1 in 10 solution): 5.9
[3]
  % Impurities RRT 1.42/1.44: 0.14%
  % Total Impurities: 0.14%
  Assay % Relative to control: 100.4%
  Mass Balance % Relative to Control: 100.5%
  Mass Balance Assay + Impurities: 99.24
Acid 1: 1 N HCl, about 72 hours, ambient
  Assay % LC: 99.1 % LC
[4]
  Assay % Relative to control: 100.2%
  Mass Balance % Relative to Control: 100.2%
  Mass Balance Assay + Impurities: 98.9
Acid 2: 0.1 N HCl, about 72 hours, ambient
  Assay % LC: 98.9 % LC
[5]
  % Impurities RRT 1.42/1.44: 0.14%
  % Total Impurities: 0.14%
  Assay % Relative to control: 100.6%
  Mass Balance % Relative to Control: 100.7%
  Mass Balance Assay + Impurities: 99.44
Base 1: 1 N NaOH, about 72 hours, ambient
  Assay % LC: 99.3 % LC
[6]
  Assay % Relative to control: 102.1%
  Mass Balance % Relative to Control: 102.1%
  Mass Balance Assay + Impurities: 100.8
Base 2: 0.1 N NaOH, about 72 hours, ambient
  Assay % LC: 100.8 % LC
Control: No treatment
  Assay % LC: 98.7 % LC
  Mass Balance Assay + Impurities: 98.7
Heat (dry): 80° for about 72 hours
  Assay % LC: 99.2 % LC
[7]
  Assay % Relative to control: 100.5%
  Mass Balance % Relative to Control: 100.5%
  Mass Balance Assay + Impurities: 99.2
[8]
  Assay % Relative to control: 100.7%
  Mass Balance % Relative to Control: 100.7%
  Mass Balance Assay + Impurities: 99.4
Heat (wet): in the presence of water, 80° for about 72 hours
  Assay % LC: 99.4 % LC
Light (dry): about 7.2 kilolux Visible and 1 W/m^2 UV, about 120 hours
  Assay % LC: 99.7 % LC
Light (dry): about 120 hours
  Assay % Relative to control: 101.0%
  Mass Balance % Relative to Control: 101.0%
  Mass Balance Assay + Impurities: 99.7
Light (wet): about 120 hours
  Assay % Relative to control: 100.2%
  Mass Balance % Relative to Control: 100.2%
  Mass Balance Assay + Impurities: 98.9
Light (wet): in the presence of water, about 7.2 kilolux Visible and 1 W/m^2 UV, about 120 hours
  Assay % LC: 98.9 % LC
[9]
  % Total Impurities: 0.55%
  Assay % Relative to control: 100.7%
  Mass Balance % Relative to Control: 101.3%
  Mass Balance Assay + Impurities: 99.95
Oxidation: 5% H2O2, about 24 hours, ambient
  Assay % LC: 99.4 % LC
acid, base, oxidation, light, heat, maximum stress conditions
  stability / degradation at all stressed conditions: no significant degradation
